Data as given in PMC8700061, “Fragment-Sized and Bidentate (Immuno)Proteasome Inhibitors Derived from Cysteine and Threonine Targeting Warheads” (Cells, 2021).
Marks after values point to notes of the source that are not given here.

How the values were obtained:
β5i subunit of human iCP [1] = molecular target: T1, β5i subunit of human iCP (Homo sapiens, UniProt P20618+P28062); set-up: method as in PMID 33894528; conditions: limited stability of compounds after 1 h in assay buffer; read-out: IC50 (µM) against the β5i subunit of human iCP; cited from earlier work
T1 construct: purchased Boston Biochem, Inc., Cambridge, MA, USA

β5i subunit of human iCP [2] = molecular target: T1, β5i subunit of human iCP; assay: Inhibition of β5i activity (RA at 10 µM, IC50, IC50 shift), Suc-LLVY-AMC; type: biochemical; conditions: for Group efficiency (GE): ΔpIC50/ΔNheavy with compound 1 as reference; for RA (%) at 10 µM, β5i: 10 µM compound, 30 min pre-incubation, SDS activator
Experimental: Residual activity measurements were performed at 10 μM final concentrations in the assay buffer (0.01% SDS, 50 mM Tris-HCl, 0.5 mM EDTA, pH 7.4). Stock solutions of the compounds were prepared in DMSO. To 50 μL of each compound in buffer, 25 μL of 0.8 nM human iCP or human cCP (both from Boston Biochem, Inc., Cambridge, MA, USA) were added. After incubation at 37 °C for 30 min, the reaction was started by adding of 25 μL of 100 μM relevant fluorogenic substrate: acetyl-Nle-Pro-Nle-Asp-AMC (Ac-nLPnLD-AMC, (Bachem, Bubendorf, Switzerland)) for β1, acetyl-Pro-Ala-Leu-7-amino-4-methylcoumarin (Ac-PAL-AMC, (Boston Biochem, Inc., Cambridge, MA, USA)) for β1i, t-butyloxycarbonyl-Leu-Arg-Arg-7-amino-4-methylcoumarin (Boc-LRR-AMC, (Bachem, Bubendorf, Switzerland)) for β2 and β2i, succinyl-Leu-Leu-Val-Tyr-7-amino-4-methylcoumarin (Suc-LLVY-AMC) (Bachem, Bubendorf, Switzerland) for β5 and β5i. Reaction progress was recorded on BioTek Synergy HT microplate reader by monitoring fluorescence at 460 nm (λex = 360 nm) for 90 min at 37 °C. The initial linear ranges were used to calculate velocity and determine residual activity. In the case of evaluation of β1, βi, β2, and β2i activities, the assay buffer was modified by replacing SDS with the proteasomal activator PA28α (Boston Biochem, Inc., Cambridge, MA, USA).
Final assay mixtures contained 0.2 nM human iCP or 0.2 nM human cCP in assay buffer (0.01% SDS (or PA28α in cases of β1, β1i subunits), 50 mM Tris-HCl, 0.5 mM EDTA, pH 7.4). Inhibitors were dissolved in DMSO and added to the black 96-well plates for at least eight different concentrations (the final concentration of DMSO was not more than 1%). […] Fluorescence was monitored at 460 nm (λex = 360 nm) for 90 min at 37 °C. The progress of the reactions was recorded and the initial linear ranges were used to calculate the velocity. IC50 values were calculated using GraphPadPrism (GraphPad Software, San Diego, CA, USA) and are means from at least three independent determinations.

[3] = HPLC-based stability assay in PBS; type: physicochemical; conditions: PBS pH 7.4
Experimental: (§1) GSH reactivity assay was performed as described by Petri et al.; 500 μM solution of compound (PBS buffer pH 7.4, 10% MeCN, 250 μL) with 200 μM solution of indoprofen as internal standard were added to 10 mM GSH solution (dissolved in PBS buffer, 250 μL) in a 1:1 ratio. The final concentration was 250 μM compound, 100 μM indoprofen, 5 mM GSH and 5% MeCN (500 μL). The final mixture was analyzed by HPLC after 0, 1, 2, 4, 8, 12, 24, 48, and 72 h. The degradation kinetics were also studied using the method described in [24], except that pure PBS buffer was used instead of GSH solution. In this experiment, the final concentration of the mixture was 250 μM fragment, 100 μM indoprofen and 5% MeCN. The area under the curve (AUC) values were determined by integrating the HPLC spectra and then corrected with the internal standard.

[4] = HPLC-based GSH reactivity assay; type: physicochemical; conditions: 250 µM compound, 5 mM GSH, PBS pH 7.4
Experimental: as §1, with “The final concentration was 250 μM compound, 100 μM indoprofen, 5 mM GSH and 5% MeCN (500 μL).” left out, “In this experiment, the final concentration of the mixture was 250 μM fragment, 100 μM indoprofen and 5% MeCN.” left out

[5] = UV-Vis-based stability assay in buffer; type: physicochemical; conditions: after 1 h, assay buffer pH 7.4, 37 °C, 50 µM
Experimental: The aqueous stability of all compounds was determined spectrophotometrically by following the changes in the absorption spectra of the compounds. The buffer solution (50 mM Tris-HCl, 0.5 mM EDTA, pH 7.4) was pre-incubated at 37 °C. Aliquots of the compounds studied (1 mM in DMSO) were transferred to a 96-well flat-bottom UV-transparent microplate (Corning, CLS3635, Corning Inc, Corning, NY, USA) containing the buffer solution to obtain a 50 μM solution containing 5% DMSO (final volume, 300 μL). The plate was incubated without lid at 37 °C in a plate reader (Synergy H4, BioTek Instruments, Inc., Santa Clara, CA, USA) and the absorbance spectrum (244–400 nm) was acquired in sweep mode after 0, 15, 30, 60, 120, 180, and 240 min using a discontinuous kinetic procedure in Gen5 software (BioTek Instruments, Inc., Santa Clara, CA, USA). The time required to read the entire plate was 3 min. To determine the baseline, the compound solution was replaced with pure DMSO and subtracted from each reading. Compounds with an absorbance maximum of less than 0.20 AU were not evaluated using these assays due to the high experimental error. For other compounds, the relative absorbance difference between the first time point and 60 min at the most responsive wavelength was calculated. If the relative absorbance difference for the compound in the buffer was below 0.1, between 0.1–0.2, and above 0.2, the compound was classified as stable, intermediate, and unstable, respectively.

GSH = assay: HPLC-based GSH reactivity assay; type: physicochemical; conditions: 5 mM glutathione (GSH) in PBS buffer; 250 µM compound, 5 mM GSH, PBS pH 7.4; read-out: Reactivity with GSH (HPLC-based assay), t1/2
Experimental: as §1, with “The final concentration was 250 μM compound, 100 μM indoprofen, 5 mM GSH and 5% MeCN (500 μL).” left out, “In this experiment, the final concentration of the mixture was 250 μM fragment, 100 μM indoprofen and 5% MeCN.” left out

human iCP (β5i) = molecular target: T2, human iCP (β5i) (Homo sapiens, UniProt P20618+P28062); assay: Screening of heterocyclic electrophilic compounds at 500 µM (β5i); type: biochemical; conditions: 30 min incubation
T2 construct: purchased Boston Biochem, Inc., Cambridge, MA, USA
Experimental: Screening of heterocyclic electrophilic compounds was performed at concentration of 500 µM in assay buffer (0.01% SDS, 50 mM Tris-HCl, 0.5 mM EDTA, pH 7.4). To 50 µL of each compound in buffer, 25 µL of 0.8 nM human iCP (Boston Biochem, Inc., Cambridge, MA, USA) was added. After 30 min incubation at 37 °C, the reaction was started by adding of 25 µL of […] Suc-LLVY-AMC (Bachem, Bubendorf, Switzerland), final concentration 25 µM). The reaction progress was recorded on BioTek Synergy HT microplate reader by monitoring fluorescence at 460 nm (λex = 360 nm) for 90 min at 37 °C. The initial linear ranges were used to calculate the velocity and determine the residual activity.

β5 subunit of human cCP = molecular target: T3, β5 subunit of human cCP (Homo sapiens, UniProt P20618+P28074); assay: Inhibition of β5 activity (RA, IC50), Suc-LLVY-AMC; type: biochemical
T3 construct: purchased Boston Biochem, Inc., Cambridge, MA, USA

Row | SMILES | IC50 (β5i subunit of human iCP [1]) [µM] | Group efficiency (GE) (β5i subunit of human iCP [2]) | Stability in Buffer (HPLC-based assay) [3] | also measured
1 | N#Cc1nc2ccccc2o1 [Compound 1, benzoxazole-2-carbonitrile] | 83 ± 6 |  |  | 
2 | N#Cc1nc2cc(Cl)ccc2o1 [Compound 2] | 67 ± 11 | 0.09 |  | 
3 | N#Cc1nc2ccc(Cl)cc2o1 [Compound 3] | 9.1 ± 4.5 | 0.96 |  | 
4 | N#Cc1nc2cccc(Cl)c2o1 [Compound 4] | 10 ± 4.6 | 0.92 |  | 
5 | Cc1ccc2nc(C#N)oc2c1 [Compound 5] |  |  | low absorbance ^c/stable ^d | RA (%) at 10 µM, β5i (β5i subunit of human iCP [2]): 81 ± 4%; Reactivity with GSH (HPLC-based assay), t1/2 [4]: < 3 min
6 | COc1cccc2nc(C#N)oc12 [Compound 9] |  | 0.61 | stable ^c,d | RA (%) at 10 µM, β5i (β5i subunit of human iCP [2]): 20 ± 6% ^f; RA (%) at 10 µM, β5i (β5i subunit of human iCP [2]; listed as 7-OMe): 20%; Stability in Buffer (UV-Vis-based assay) [5]: stable ^c,d (relative absorbance difference for the compound in the buffer was below 0.1); half-life at 250 µM (GSH): < 3 min
7 | N#Cc1nc2ccc(N)cc2o1 [Compound 22] |  |  | stable ^c,d | Stability in Buffer (UV-Vis-based assay) [5]: stable ^c,d (relative absorbance difference for the compound in the buffer was below 0.1); Reactivity with GSH (HPLC-based assay), t1/2 [4]: < 3 min
8 | C=Cc1nccs1 [XXI, 2-vinylthiazole] |  |  |  | RA at 500 µM [%] (β5i) (human iCP (β5i)): 5 ± 3%
9 | CC(C)C[C@H](NC(=O)[C@H](CCc1ccccc1)NC(=O)CN1CCOCC1)C(=O)N[C@@H](Cc1ccccc1)C(=O)N[C@@H](CC(C)C)C(=O)[C@@]1(C)CO1 [carfilzomib] |  |  |  | β5 RA at 10 nM (control) (β5 subunit of human cCP): 25 ± 1%
